From PubChem BioAssay AID2060504 (Molecular Pharmacology Branch, DTP, NCI, 2025)
Several values for one entry are separate records, joined by “and”; a condition that tells them apart may be missing. Identical values can stand only once.

Tested on: 636577-100-R-J1-PDC complex spheroid viability
Experiment: Anticancer human tumor 636577-100-R-J1-PDC patient-derived endometrial adenocarcinoma cell line growth inhibition [GQUAD]
Conditions: for viability, T/C: stronger effect = lower value; active = viability on the fitted dose curve at most 10% of control; inactive = the rest
Source text: DNA G-quadruplex Stabilizer Agents in Combinations in Complex Spheroids
A high-throughput screen of multi-cell type tumor spheroids was designed to identify active combinations of DNA G-quadruplex stabilizer agents and targeted small molecules. Complex spheroids include a stromal component modeled by human endothelial cells (HUVEC) and fibroblasts modeled by human mesenchymal stem cells (MSCs). The concentration ranges selected for each drug and investigational agent were based upon clinically achievable concentrations if the clinical Cmax of the agent was known.
Compounds. The drugs and investigational agents: pidnarulex (CX-5461; NSC782164), APTO-253 (NSC789042), BRACO-19 (NSC847499), peposertib (NSC802822), ceralasertib (NSC780249), elimusertib (NSC800525), camonsertib (NSC841442), AZD-1390 (NSC803789), olaparib (NSC753686), talazoparib (NSC767125), ART-558 (NSC835418), sotorasib (NSC818433), MRTX-1133 (NSC836407), SN-38 (NSC673596), topotecan (NSC609699), etoposide (NSC141540), doxorubicin (NSC123127), gemcitabine (NSC613327), 5-fluorouracil (NSC19893), paclitaxel (NSC125973), vemurafenib (NSC761431), panobinostat (NSC761190), R-306465 (JNJ-16241199; NSC773264), adavosertib (NSC754352), TP-3654 (NSC805149), carboplatin (NSC241240), KSQ-4279 (NSC840948), and staurosporine (NSC755774) were obtained from the National Cancer Institute (NCI) Developmental Therapeutics Program Chemical Repository (34). The FDA-approved anticancer drug set is available from the NCI Developmental Therapeutics Program. […] The stock solutions were prepared in dimethyl sulfoxide (DMSO, Sigma-Aldrich, St. Louis, MO, cat. D2650) at 800-fold the tested concentration and stored at -70 degrees C prior to their use. All drugs and investigational agents were tested over a range starting from a high concentration at or near the clinical Cmax and decreasing in half-log increments. If the clinical Cmax for an agent had not been determined, the highest concentration tested was 10 microM.
2.3 Cell Culture. All cells were maintained in an incubator at 37 degrees C and 5% CO2 with 95% humidity. The PDC lines were cultured according to standard operating procedures established by the NCI PDMR. All PDCs were thawed and cultured in Matrigel-coated flasks prepared with a working solution of 1X Ham's F-12 nutrient mix, without supplementation (Invitrogen, cat. 11765054), 100 U/mL penicillin-streptomycin (Invitrogen, cat. 15140122), and 2.5% Matrigel (Corning Inc., cat. 354248) for the first three passages. The 857933-349-R-J2-PDC line was cultured in 6C/Colon 1B media, which includes advanced DMEM/F-12 (Thermo Fisher Scientific, cat. 12634028), 10 mM HEPES (Thermo Fisher Scientific, cat. 15630080), 1X GlutaMAX supplement (Thermo Fisher Scientific, cat. 35050061), 0.1 mg/mL primocin (InvivoGen, cat. ant-pm-2), 10% defined fetal bovine serum, heat inactivated (HyClone Laboratories Inc., cat. SH30070.03HI), 50% L-WRN conditioned media (ATCC, cat. CRL-3276), 1.25 mM N-Acetyl-L-cysteine (Sigma-Aldrich, cat. A9165), 10 mM nicotinamide (Sigma-Aldrich, cat. N0636), 1X B-27 supplement (Thermo Fisher Scientific, cat. 17504044), 1X N-2 supplement (Thermo Fisher Scientific, cat. 17502048), 10 microM Y-27632 dihydrochloride (Tocris Bioscience, cat. 1254), and 50 ng/mL human EGF recombinant protein (Thermo Fisher Scientific, cat. PHG0311). The 485176-168-R4-J1-PDC line was cultured in Panc media, which includes all 6C/Colon 1B media components plus 100 ng/mL human FGF-10 (Thermo Fisher Scientific, cat. 100-26), 500 nM SB-431542 (Selleckchem, cat. S1067), and gastrin (Tocris, cat. 3006).
[…]

[1] = curve of first compound, second compound 0.0316 µM
[2] = curve of first compound, second compound 0.1 µM
[3] = curve of first compound, second compound 0.316 µM
[4] = curve of first compound, second compound 1 µM
[5] = curve of first compound, second compound 3.16 µM
[6] = curve of first compound, second compound 10 µM
[7] = second compound 0.0316 µM, first compound 0.0316 µM
[8] = second compound 0.0316 µM, first compound 0.316 µM
[9] = second compound 0.1 µM, first compound 0.0316 µM
[10] = second compound 0.1 µM, first compound 0.316 µM
[11] = second compound 0.316 µM, first compound 0.0316 µM
[12] = second compound 0.316 µM, first compound 0.316 µM
[13] = second compound 1 µM, first compound 0.0316 µM
[14] = second compound 1 µM, first compound 0.316 µM
[15] = second compound 3.16 µM, first compound 0.0316 µM
[16] = second compound 3.16 µM, first compound 0.316 µM
[17] = second compound 10 µM, first compound 0.0316 µM
[18] = second compound 10 µM, first compound 0.316 µM
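Also: viability read after seven days of drug exposure.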
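For viability, T/C in this document: luminescence signal used as a proxy for viable cells; 100% = DMSO vehicle control wells.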

Cn1ncnc1[C@H]1c2n[nH]c(=O)c3cc(F)cc(c23)N[C@@H]1c1ccc(F)cc1 + CN(C)c1ccc(Nc2c3ccc(NC(=O)CCN4CCCC4)cc3nc3cc(NC(=O)CCN4CCCC4)ccc23)cc1
active: viability, T/C (second compound 10 µM, first compound 0.000999 µM) 7.06% | viability, T/C (second compound 10 µM, first compound 0.00316 µM) 7.39% | viability, T/C (second compound 10 µM, first compound 0.00999 µM) 6.25% | viability, T/C [17] 5.78% | viability, T/C (second compound 10 µM, first compound 0.0999 µM) 5.88% | viability, T/C [18] 4.9%
24.6 nM: IC50 [2]
< 0.999 nM: IC50 [5] | IC50 [6]
45 nM: IC50 [4]
42.7 nM: IC50 [1]
34.6 nM: IC50 [3]
inactive: viability, T/C (second compound 0.0316 µM, first compound 0.000999 µM) 95.1% | viability, T/C (second compound 0.0316 µM, first compound 0.00316 µM) 78.8% | viability, T/C (second compound 0.0316 µM, first compound 0.00999 µM) 84.6% | viability, T/C [7] 50.4% | viability, T/C (second compound 0.0316 µM, first compound 0.0999 µM) 42.2% | viability, T/C [8] 29% | viability, T/C (second compound 0.1 µM, first compound 0.000999 µM) 102% | viability, T/C (second compound 0.1 µM, first compound 0.00316 µM) 73% | viability, T/C (second compound 0.1 µM, first compound 0.00999 µM) 56.1% | viability, T/C [9] 51.4% | viability, T/C (second compound 0.1 µM, first compound 0.0999 µM) 46.7% | viability, T/C [10] 23% | viability, T/C (second compound 0.316 µM, first compound 0.000999 µM) 81.9% | viability, T/C (second compound 0.316 µM, first compound 0.00316 µM) 63.7% | viability, T/C (second compound 0.316 µM, first compound 0.00999 µM) 59.3% | viability, T/C [11] 49.7% | viability, T/C (second compound 0.316 µM, first compound 0.0999 µM) 48.6% | viability, T/C [12] 37.8% | viability, T/C (second compound 1 µM, first compound 0.000999 µM) 63.2% | viability, T/C (second compound 1 µM, first compound 0.00316 µM) 63.6% | viability, T/C (second compound 1 µM, first compound 0.00999 µM) 61.2% | viability, T/C [13] 52.1% | viability, T/C (second compound 1 µM, first compound 0.0999 µM) 40.2% | viability, T/C [14] 38.2% | viability, T/C (second compound 3.16 µM, first compound 0.000999 µM) 42.7% | viability, T/C (second compound 3.16 µM, first compound 0.00316 µM) 41.5% | viability, T/C (second compound 3.16 µM, first compound 0.00999 µM) 33.8% | viability, T/C [15] 31.4% | viability, T/C (second compound 3.16 µM, first compound 0.0999 µM) 25.1% | viability, T/C [16] 24.9%

Cc1cnc(CNC(=O)c2c(=O)c3ccc(N4CCCN(C)CC4)nc3n3c2sc2ccccc23)cn1
inactive: viability, T/C (compound 0.0316 µM) 50.9% [middle of 10 runs] | viability, T/C (compound 0.1 µM) 29.8% [middle of 10 runs] | viability, T/C (compound 0.316 µM) 26.9% [middle of 10 runs] | viability, T/C (compound 1 µM) 24.9% [middle of 10 runs] | viability, T/C (compound 3.16 µM) 22.2% [middle of 10 runs] | viability, T/C (compound 10 µM) 20.8% [middle of 10 runs]

COc1cc(C2c3cc4c(cc3C(OC3OC5COC(C)OC5C(O)C3O)C3COC(=O)C23)OCO4)cc(OC)c1O (stereo not drawn)
81.9 nM and 76.2 nM and 64 nM: IC50 (curve of compound)
inactive: viability, T/C (compound 0.0316 µM) 80.7% and 81.6% and 73.5% | viability, T/C (compound 0.1 µM) 43.7% and 40.4% and 34.9% | viability, T/C (compound 0.316 µM) 24.3% and 21.7% and 21.6% | viability, T/C (compound 1 µM) 18.6% and 19% and 17.9% | viability, T/C (compound 3.16 µM) 15.4% and 13.9% and 16.5% | viability, T/C (compound 10 µM) 13% and 12.7% and 13.3%

CCc1c2c(nc3ccc(O)cc13)-c1cc3c(c(=O)n1C2)COC(=O)[C@]3(O)CC
inactive: viability, T/C (compound 0.000999 µM) 46.6% | viability, T/C (compound 0.00316 µM) 22.1% | viability, T/C (compound 0.00999 µM) 23.3% | viability, T/C (compound 0.0316 µM) 22.9% | viability, T/C (compound 0.0999 µM) 19.6% | viability, T/C (compound 0.316 µM) 10.7%
< 0.999 nM: IC50 (curve of compound)

CC(C)n1c(=O)n(C)c2cnc3cc(F)c(-c4ccc(OCCCN5CCCCC5)nc4)cc3c21
> 10000 nM and 9660 nM: IC50 (curve of compound)
inactive: viability, T/C (compound 0.0316 µM) 72.8% and 108% | viability, T/C (compound 0.1 µM) 97.3% and 87.1% | viability, T/C (compound 0.316 µM) 90.1% and 107% | viability, T/C (compound 1 µM) 56.6% and 102% | viability, T/C (compound 3.16 µM) 57.8% and 80.4% | viability, T/C (compound 10 µM) 53.7% and 49%

Nc1ccn(C2OC(CO)C(O)C2(F)F)c(=O)n1 (stereo not drawn) + CN(C)c1ccc(Nc2c3ccc(NC(=O)CCN4CCCC4)cc3nc3cc(NC(=O)CCN4CCCC4)ccc23)cc1
active: viability, T/C [17] 3.38% | viability, T/C (second compound 10 µM, first compound 0.1 µM) 3.05% | viability, T/C [18] 4% | viability, T/C (second compound 10 µM, first compound 1 µM) 3.42% | viability, T/C (second compound 10 µM, first compound 3.16 µM) 3.65% | viability, T/C (second compound 10 µM, first compound 10 µM) 3.14%
inactive: viability, T/C [7] 17.7% | viability, T/C (second compound 0.0316 µM, first compound 0.1 µM) 13.4% | viability, T/C [8] 14.6% | viability, T/C (second compound 0.0316 µM, first compound 1 µM) 17.2% | viability, T/C (second compound 0.0316 µM, first compound 3.16 µM) 16.4% | viability, T/C (second compound 0.0316 µM, first compound 10 µM) 15.8% | viability, T/C [9] 17.7% | viability, T/C (second compound 0.1 µM, first compound 0.1 µM) 14.2% | viability, T/C [10] 14.9% | viability, T/C (second compound 0.1 µM, first compound 1 µM) 14.3% | viability, T/C (second compound 0.1 µM, first compound 3.16 µM) 14.5% | viability, T/C (second compound 0.1 µM, first compound 10 µM) 18.5% | viability, T/C [11] 16.9% | viability, T/C (second compound 0.316 µM, first compound 0.1 µM) 11.2% | viability, T/C [12] 14.2% | viability, T/C (second compound 0.316 µM, first compound 1 µM) 17.4% | viability, T/C (second compound 0.316 µM, first compound 3.16 µM) 16.4% | viability, T/C (second compound 0.316 µM, first compound 10 µM) 15.6% | viability, T/C [13] 15.9% | viability, T/C (second compound 1 µM, first compound 0.1 µM) 16.7% | viability, T/C [14] 15.2% | viability, T/C (second compound 1 µM, first compound 1 µM) 17.8% | viability, T/C (second compound 1 µM, first compound 3.16 µM) 16.5% | viability, T/C (second compound 1 µM, first compound 10 µM) 17.1% | viability, T/C [15] 16.6% | viability, T/C (second compound 3.16 µM, first compound 0.1 µM) 13.9% | viability, T/C [16] 15.2% | viability, T/C (second compound 3.16 µM, first compound 1 µM) 14.8% | viability, T/C (second compound 3.16 µM, first compound 3.16 µM) 16.3% | viability, T/C (second compound 3.16 µM, first compound 10 µM) 14.5%
< 31.6 nM: IC50 [1] | IC50 [2] | IC50 [3] | IC50 [4] | IC50 [5] | IC50 [6]

O=C(NO)c1cnc(N2CCN(S(=O)(=O)c3ccc4ccccc4c3)CC2)nc1
active: viability, T/C (compound 0.316 µM) 7.21% and 7.67% and 7.55% | viability, T/C (compound 1 µM) 5.31% and 5.87% and 4.07% | viability, T/C (compound 3.16 µM) 0.18% and 0.1% and 0.17% | viability, T/C (compound 10 µM) 0.11% (2×) and 0.08%
< 31.6 nM and 34.8 nM: IC50 (curve of compound)
inactive: viability, T/C (compound 0.0316 µM) 37.6% and 34.2% and 52.9% | viability, T/C (compound 0.1 µM) 16.6% and 16.8% and 20.5%
